SMILES	melting point
Cc1cc(SC(C)c2cccc3nn(-c4ccc(C(F)(F)F)cc4)cc23)ccc1OC(C)(C)C(=O)O (racemic) [Example 72, (+/−)-2-Methyl-2-(2-methyl-4-{1-[2-(4-trifluoromethylphenyl)-2H-indazol-4-yl]ethylsulfanyl}phenoxy)propionic Acid]	153 to 155 °C
Cc1cc(SCc2cccc3c2cnn3-c2ccc(C(F)(F)F)cc2)ccc1CCC(=O)O [Example 32, 3-{2-Methyl-4-[1-(4-trifluoromethylphenyl)-1H-indazol-4-ylmethylsulfanyl]phenyl}propionic Acid]	113 to 115 °C
Cc1cc(SC(CCC(F)(F)F)c2cccc3c2cnn3-c2ccc(C(F)(F)F)cc2)ccc1OC(C)(C)C(=O)O (racemic) [Example 88, (+/−)-2-Methyl-2-(2-methyl-4-{4,4,4-trifluoro-1-[1-(4-trifluoromethylphenyl)-1H-indazol-4-yl]butylsulfanyl}phenoxy)propionic Acid]	205 to 210 °C
Cc1cc(SCc2ccc3cn(-c4ccc(C(F)(F)F)cc4)nc3c2)ccc1OC(C)(C)C(=O)O [Example 53, 2-Methyl-2-{2-methyl-4-[2-(4-trifluoromethylphenyl)-2H-indazol-6-ylmethylsulfanyl]phenoxy}propionic Acid]	116 to 118 °C
CCc1cc(OCc2cccc3cn(-c4ccc(C(F)(F)F)cc4)nc23)ccc1CCC(=O)O [Example 7, 3-{2-Ethyl-4-[2-(4-trifluoromethylphenyl)-2H-indazol-7-ylmethoxy]phenol}propionic Acid]	157 to 159 °C
CC(Oc1ccc(OC(C)(C)C(=O)O)cc1)c1cccc2cn(-c3ccc(C(F)(F)F)cc3)nc12 (racemic) [Example 44, (+/−)-2-Methyl-2-(4-{1-[2-(4-trifluoromethylphenyl)-2H-indazol-7-yl]ethoxy}phenoxy)propionic Acid]	130 to 132 °C
Cc1cc(SCc2cccc3nn(-c4ccc(C(F)(F)F)cc4)cc23)ccc1OCC(=O)O [Example 26, 2-Methyl-4-[2-(4-trifluoromethylphenyl)-2H-indazol-4-ylmethylsulfanyl]phenoxyacetic Acid]	105 to 108 °C
Cc1cc(SCCc2cccc3cn(-c4ccc(C(F)(F)F)cc4)nc23)ccc1OCC(=O)O [Example 46, (2-Methyl-4-{2-[2-(4-trifluoromethylphenyl)-2H-indazol-7-yl]ethylsulfanyl}phenoxy)acetic Acid]	137 to 139 °C
CC(C)(Sc1ccc(OC(CCC(F)(F)F)c2cccc3c2cnn3-c2ccc(C(F)(F)F)cc2)cc1)C(=O)O (racemic) [Example 89, (+/−)-2-Methyl-2-(4-{4,4,4-trifluoro-1-[1-(4-trifluoromethylphenyl)-1H-indazol-4-yl]butoxy}phenylsulfanyl)propionic Acid]	> 260 °C
Cc1cc(OC(C)c2ccc3nn(-c4ccc(C(F)(F)F)cc4)cc3c2)ccc1OC(C)(C)C(=O)O (racemic) [Example 66, (+/−)-2-Methyl-2-(2-methyl-4-{1-[2-(4-trifluoromethylphenyl)-2H-indazol-5-yl]ethoxy}phenoxy)propionic Acid]	129 to 131 °C
CC(Oc1ccc(SC(C)(C)C(=O)O)cc1)c1ccc2nn(-c3ccc(C(F)(F)F)cc3)cc2c1 (racemic) [Example 67, (+/−)-2-Methyl-2-(4-{1-[2-(4-trifluoromethylphenyl)-2H-indazol-5-yl]ethoxy}phenylsulfanyl)propionic Acid]	153 to 155 °C
CC(Sc1ccc(OC(C)(C)C(=O)O)cc1)c1cccc2c1cnn2-c1ccc(C(F)(F)F)cc1 (racemic) [Example 86, (+/−)-2-Methyl-2-(4-{1-[1-(4-trifluoromethylphenyl)-1H-indazol-4-yl]ethylsulfanyl}phenoxy)propionic Acid]	85 to 90 °C
Cc1cc(SCc2cccc3cn(-c4ccc(C(F)(F)F)cc4)nc23)ccc1OCC(=O)O [Example 1, 2-Methyl-4-[2-(4-trifluoromethylphenyl)-2H-indazol-7-ylmethylsulfanyl]phenoxyacetic Acid]	79 to 81 °C
CC(C)(Oc1ccc(OC(CCC(F)(F)F)c2cccc3c2cnn3-c2ccc(C(F)(F)F)cc2)cc1)C(=O)O (racemic) [Example 90, (+/−)-2-Methyl-2-(4-{4,4,4-trifluoro-1-[1-(4-trifluoromethylphenyl)-1H-indazol-4-yl]butoxy}phenoxy)propionic Acid]	175 to 180 °C

Continued, values first:

melting point	SMILES
135 to 137 °C	Cc1cc(SCc2cccc3cn(-c4ccc(C(F)(F)F)cc4)nc23)ccc1OC(C)(C)C(=O)O [Example 35, 2-Methyl-2-{2-methyl-4-[2-(4-trifluoromethylphenyl)-2H-indazol-7-ylmethylsulfanyl]phenoxy}propionic Acid]
139 to 141 °C	Cc1cc(OC(C)c2cccc3cn(-c4ccc(C(F)(F)F)cc4)nc23)ccc1OC(C)(C)C(=O)O (racemic) [Example 40, (+/−)-2-Methyl-2-(2-methyl-4-{1-[2-(4-trifluoromethylphenyl)-2H-indazol-7-yl]ethoxy}phenoxy)propionic Acid]
86 to 88 °C	CC(Oc1ccc(OC(C)(C)C(=O)O)cc1)c1cccc2nn(-c3ccc(C(F)(F)F)cc3)cc12 (racemic) [Example 75, (+/−)-2-Methyl-2-(4-{1-[2-(4-trifluoromethylphenyl)-2H-indazol-4-yl]ethoxy}phenoxy)propionic Acid]
120 to 122 °C	CC(C)(Sc1ccc2c(CC(=O)O)csc2c1)c1cccc2cn(-c3ccc(C(F)(F)F)cc3)nc12 [Example 17, 6-{1-Methyl-1-[2-(4-trifluoromethylphenyl)-2H-indazol-7-yl]ethylsulfanyl}benzo[b]thiophen-3-ylacetic Acid]
119 to 121 °C	CCc1cc(SCc2ccc3cn(-c4ccc(C(F)(F)F)cc4)nc3c2)ccc1OCC(=O)O [Example 21, 2-Ethyl-4-[2-(4-trifluoromethylphenyl)-2H-indazol-6-ylmethylsulfanyl]phenoxyacetic Acid]
66 to 68 °C	Cc1cc(OC(C)c2cccc3cn(-c4ccc(C(F)(F)F)cc4)nc23)ccc1CCC(=O)O (racemic) [Example 12, (+/−)-3-(2-Methyl-4{1-[2-(4-trifluoromethylphenyl)-2H-indazol-7yl]ethoxy}phenyl)propionic Acid]
152 to 154 °C	CC(Oc1ccc(OC(C)(C)C(=O)O)cc1)c1ccc2nn(-c3ccc(C(F)(F)F)cc3)cc2c1 (racemic) [Example 70, (+/−)-2-Methyl-2-(4-{1-[2-(4-trifluoromethylphenyl)-2H-indazol-5-yl]ethoxy}phenoxy)propionic Acid]
124 to 126 °C	Cc1cc(OCc2cccc3cnn(-c4ccc(C(F)(F)F)cc4)c23)ccc1OC(C)(C)C(=O)O [Example 96, 2-Methyl-2-{2-methyl-4-[1-(4-trifluoromethylphenyl)-1H-indazol-7-ylmethoxy]phenoxy}propionic Acid]
65 to 70 °C	CCc1cc(SCc2cccc3nn(-c4ccc(C(F)(F)F)cc4)cc23)ccc1OCC(=O)O [Example 27, 2-Ethyl-4-[2-(4-trifluoromethylphenyl)-2H-indazol-4-ylmethylsufanyl]phenoxyacetic Acid]
125 to 127 °C	Cc1cc(SCc2cccc3nn(-c4ccc(C(F)(F)F)cc4)cc23)ccc1OC(C)(C)C(=O)O [Example 71, 2-Methyl-2-{2-methyl-4-[2-(4-trifluoromethylphenyl)-2H-indazol-4-ylmethylsulfanyl]phenoxy}propionic Acid]
59 to 61 °C	Cc1cc(SC(C)c2cccc3cn(-c4ccc(C(F)(F)F)cc4)nc23)ccc1CCC(=O)O (racemic) [Example 9, (+/−)-3-(2-Methyl-4-{1-[2-(4-trifluoromethylphenyl)-2H-indazol-7-yl]ethylsulfanyl}phenyl)propionic Acid]
118 to 121 °C	Cc1cc(SCc2cccc3cnn(-c4ccc(C(F)(F)F)cc4)c23)ccc1OCC(=O)O [Example 34, 2-Methyl-4-[1-(4-trifluoromethylphenyl)-1H-indazol-7-ylmethylsulfanyl]phenoxyacetic Acid]
159 to 161 °C	CC(C)(Oc1ccc(SCc2ccc3nn(-c4ccc(C(F)(F)F)cc4)cc3c2)cc1)C(=O)O [Example 63, 2-Methyl-2-{4-[2-(4-trifluoromethylphenyl)-2H-indazol-5-ylmethylsulfanyl]phenoxy}propionic Acid]
118 to 120 °C	Cc1cc(SC(C)(C)c2cccc3cn(-c4ccc(C(F)(F)F)cc4)nc23)ccc1OCC(=O)O [Example 14, 2-Methyl-4-{1-methyl-1-[2-(4-trifluoromethylphenyl)-2H-indazol-7-yl]ethylsulfanyl}phenoxyacetic Acid]
62 to 64 °C	Cc1cc(SC(C)c2cccc3cn(-c4ccc(C(F)(F)F)cc4)nc23)ccc1OCC(=O)O (racemic) [Example 8, (+/−)-2-Methyl-4-{1-[2-(4-trifluoromethylphenyl)-2H-indazol-7-yl]ethylsulfanyl}phenoxyacetic Acid]
147 to 149 °C	O=C(O)Cc1cccc(SCc2cccc3cn(-c4ccc(C(F)(F)F)cc4)nc23)c1 [Example 4, 3-[2-(4-Trifluoromethylphenyl)-2H-indazol-7-ylmethylsulfanyl]phenylacetic Acid]
130 to 132 °C	Cc1cc(SCc2ccc3cn(-c4ccc(C(F)(F)F)cc4)nc3c2)ccc1CCC(=O)O [Example 20, 3-{2-Methyl-4-[2-(4-trifluoromethylphenyl)-2H-indazol-6-ylmethylsulfanyl]phenyl}propionic Acid]
144 to 146 °C	CC(Oc1ccc(OC(C)(C)C(=O)O)cc1)c1ccc2cn(-c3ccc(C(F)(F)F)cc3)nc2c1 (racemic) [Example 58, (+/−)-2-Methyl-2-(4-{1-[2-(4-trifluoromethylphenyl)-2H-indazol-6-yl]ethoxy}phenoxy)propionic Acid]
158 to 160 °C	CC(C)(Oc1ccc(SCc2cccc3c2cnn3-c2ccc(C(F)(F)F)cc2)cc1)C(=O)O [Example 79, 2-Methyl-2-{4-[1-(4-trifluoromethylphenyl)-1H-indazol-4-ylmethylsulfanyl]phenoxy}propionic Acid]

— patent US7544707B2, “Bicyclic derivatives as PPAR modulators” (Eli Lilly and Company, priority 2003, dated 2009)
